SMILES strings stand for the structures. Where “and” joins values, the source holds several entries; their conditions need not be identical. Identical values can stand only once.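 Dose response: 5 concentrations. Exposure: 48 h. Format: 96-well plates. Endpoint: linear interpolation; highest concentration if not reached. At the GI50, growth is halved. The concentration for full growth arrest is given as TGI.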 Where a SMILES comes first, the peptide text is derived from it. [ ]: non-standard residue; d: D form. The star is where a group is joined. ξ: configuration not given here. X6 = FC(F)(F)c1cc(NC(=S)*)cc(C(F)(F)F)c1; ξF = NC(Cc1ccccc1)C(=O)O

Drawing on PubChem BioAssay (NCI), this text covers TGI and GI50 for eight compounds.

Some test systems named below: 786-0 renal; HCT-15 colon; HOP-92 NSCLC; NCI-H226 lung; SF-295 CNS; SF-539 CNS; SK-OV-3 ovarian; SNB-19 CNS; U251 CNS; UACC-257 melanoma.
Assay in all cases: DTP human tumour cell line panel, 48 h

`CC12CCC(O)CC1CCC1C2CCC2(C)C(C3=CC(=O)OC3)CCC12O` (stereo not given): the TGI in the experiment with 786-0 renal is 4.78 µM; in the experiment with HCT-15 colon it was 5.75 µM; in the experiment on HOP-92 NSCLC, more than 41.9 µM; in the experiment with NCI-H226 lung it was 27.7 µM; with SF-295 CNS it was 10.8 µM; with SF-539 CNS, 3.2 µM. Moreover, the TGI in the experiment with SK-OV-3 ovarian was 18.5 µM; in the experiment with SNB-19 CNS it was 12.8 µM; with U251 CNS, 27.8 µM; in the experiment on UACC-257 melanoma, more than 43.4 µM. Also, the GI50 in the experiment with HCT-15 colon was 2.39 µM.

In the case of `CCCCCN(CCCCC)CC(O)c1cc(C)c2ccc3cc(C(C)C)ccc3c2c1` (stereo not given), the GI50 is 1.79 µM in the experiment with 786-0 renal; 1.81 µM with HCT-15 colon; 1.4 µM with HOP-92 NSCLC; 1.85 µM with NCI-H226 lung; 1.87 µM in the experiment on SF-295 CNS; 1.79 µM with SF-539 CNS. The GI50 in the experiment with SK-OV-3 ovarian was 1.72 µM; with SNB-19 CNS it was 1.88 µM; in the experiment with U251 CNS it was 1.9 µM; in the experiment with UACC-257 melanoma it was 1.99 µM. Further, the TGI with 786-0 renal was 3.41 µM; with HCT-15 colon it was 3.43 µM; with HOP-92 NSCLC, 2.85 µM; with NCI-H226 lung, 3.97 µM; in the experiment with SF-295 CNS it was 3.46 µM; with SF-539 CNS, 3.36 µM. Moreover, the TGI in the experiment with SK-OV-3 ovarian turned out to be 3.46 µM; in the experiment with SNB-19 CNS, 3.73 µM; in the experiment with U251 CNS it was 3.82 µM; in the experiment with UACC-257 melanoma, 3.97 µM.

As to `C/C(CC(=O)CCC(=O)Nc1cccc(C(F)(F)F)c1)=N\NC(=O)NN`, the TGI in the experiment on 786-0 renal, in the experiment with HCT-15 colon, in the experiment with HOP-92 NSCLC, in the experiment with NCI-H226 lung, with SF-295 CNS and in the experiment on SF-539 CNS was more than 100 µM throughout. The concentration for total growth inhibition (TGI) in the experiment on SK-OV-3 ovarian, with SNB-19 CNS, with U251 CNS and in the experiment on UACC-257 melanoma was more than 100 µM each time.

With `O=C(Nc1ccc(Cl)c(Cl)c1)Nc1ccc(Cl)c(Cl)c1`, the GI50 in the experiment on 786-0 renal is 3.79 µM and 3.21 µM; with HCT-15 colon, 2.9 µM and 3.01 µM; in the experiment with HOP-92 NSCLC, 2.19 µM and 1.23 µM; with NCI-H226 lung, 3.05 µM and 3.22 µM; in the experiment on SF-295 CNS it was 2.3 µM and 1.84 µM; in the experiment with SF-539 CNS, 2.63 µM and 3.64 µM. In addition, the GI50 in the experiment with SK-OV-3 ovarian is 3.39 µM and 3.82 µM; in the experiment with SNB-19 CNS, 3.03 µM and 3.7 µM; in the experiment on U251 CNS it was 2.67 µM and 1.77 µM; with UACC-257 melanoma, 2.39 µM and 2.05 µM. The TGI in the experiment with 786-0 renal is 14.4 µM and 13 µM; in the experiment on HCT-15 colon, 11.9 µM and 11.2 µM; in the experiment on HOP-92 NSCLC, 5.81 µM and 4.47 µM; with NCI-H226 lung, 15.2 µM and 15.8 µM; in the experiment on SF-295 CNS, 6.93 µM and 5.39 µM; in the experiment on SF-539 CNS, 8.15 µM and 14.7 µM. Besides, the TGI was 11.6 µM and 15.9 µM in the experiment on SK-OV-3 ovarian; 15.4 µM and 23 µM with SNB-19 CNS; 11.2 µM and 5.14 µM with U251 CNS; 6.96 µM and 5.85 µM in the experiment on UACC-257 melanoma.

As for `CC1(c2ccc(F)cc2)C(C#N)C(=O)NC(=O)C1C#N` (stereo not given), the TGI in the experiment with 786-0 renal, with HCT-15 colon, in the experiment with HOP-92 NSCLC, with NCI-H226 lung, in the experiment with SF-295 CNS and in the experiment with SF-539 CNS was more than 100 µM throughout. In addition, the TGI in the experiment with SK-OV-3 ovarian, in the experiment with SNB-19 CNS and in the experiment with UACC-257 melanoma was more than 100 µM each time.

Consider `O=S(=O)(NC1=NCCN1C(=S)SN1CCn2c1nsc2=S)c1ccc(OC(F)(F)F)cc1`, for which the GI50 with 786-0 renal is 8.53 µM; in the experiment on HCT-15 colon, 8.64 µM; in the experiment with HOP-92 NSCLC it was 25.1 µM; with NCI-H226 lung, 18 µM; in the experiment with SF-539 CNS, 1.31 µM; with SK-OV-3 ovarian, 19.5 µM. The GI50 is 16.8 µM with SNB-19 CNS, 14.4 µM with U251 CNS and 15.5 µM with UACC-257 melanoma. Besides, the TGI in the experiment on 786-0 renal amounted to 21.6 µM; in the experiment on HCT-15 colon, 26.2 µM; in the experiment with HOP-92 NSCLC, 44.1 µM; in the experiment on NCI-H226 lung, 38.7 µM; in the experiment with SF-539 CNS, 12.1 µM; in the experiment with SK-OV-3 ovarian, 34.6 µM. Further, the TGI in the experiment on SNB-19 CNS is 32.1 µM; with U251 CNS, 29.4 µM; in the experiment with UACC-257 melanoma, 30 µM.

For the compound `COC(=O)[C@@H](NC(=O)CNC(=O)[C@H]1CCCN1C(=O)C(Cc1ccccc1)NC(=S)Nc1cc(C(F)(F)F)cc(C(F)(F)F)c1)C(C)C` (stereo not given in full) (X6-[ξF][dP]GV-OMe), the GI50 in the experiment on 786-0 renal was 2.12 µM; in the experiment on HCT-15 colon, 2.29 µM; in the experiment on HOP-92 NSCLC, 1.95 µM; in the experiment with NCI-H226 lung, 1.65 µM; with SF-295 CNS, 2.33 µM; with SF-539 CNS, 2.06 µM. The GI50 with SK-OV-3 ovarian is 2.98 µM; with SNB-19 CNS, 2.56 µM; in the experiment on UACC-257 melanoma it was 2.14 µM. The TGI with 786-0 renal was found to be 4.34 µM; in the experiment with HCT-15 colon it was 5.37 µM; in the experiment on HOP-92 NSCLC it was 6.37 µM; in the experiment with NCI-H226 lung, 3.42 µM; in the experiment with SF-295 CNS, 6.12 µM; in the experiment with SF-539 CNS it was 3.94 µM. The TGI in the experiment on SK-OV-3 ovarian turned out to be 8.26 µM; in the experiment with SNB-19 CNS, 9.49 µM; with UACC-257 melanoma, 5.75 µM.

With `CCOC(=O)CN1C(=O)c2cccc3cc([N+](=O)[O-])cc(c23)C1=O`, the TGI was found to be 26.3 µM in the experiment on 786-0 renal; 3.47 µM in the experiment with HCT-15 colon; 6.21 µM in the experiment on HOP-92 NSCLC; 23 µM with NCI-H226 lung; 16 µM in the experiment on SF-539 CNS; 41 µM in the experiment on SK-OV-3 ovarian. Besides, the TGI worked out at 32.3 µM in the experiment with SNB-19 CNS, 20.3 µM in the experiment on U251 CNS and 7.73 µM in the experiment on UACC-257 melanoma.

The TGI is the concentration at which net growth stops. Read a high TGI as less potent growth arrest. By GI50 is commonly meant the concentration giving 50% growth inhibition.
